Test results reported in PMC11522901, “Translation of Deoxyribonucleic Acid into Synthetic Alpha Helical Peptides for Darwinian Evolution” (JACS Au, 2024).
*1 amine or outer side, *2 acyl side, *3 side chain or, on linkers, in order; H or OH if unused. Where a SMILES comes first, the peptide text is derived from it. Bridges are numbered along the chain shown (N, C = ends). [ ]: non-standard residue; d: D form. Diglycolyl = O=C(COCC(=O)[*:2])[*:1]; Cba = N[C@@H](CC1CCC1)C(=O)O; Nle = CCCC[C@H](N)C(=O)O

Target: T1, MDM2 (Homo sapiens, UniProt Q00987)
T1 construct: made in house
Assay: Surface plasmon resonance (SPR) against captured GST-MDM2
Format: binding
Details: for koff / kon: SPR Biacore T200, 25 °C, PBS-P+, GST-MDM2 captured via anti-GST antibody on CM5 chip, 2-fold dilutions 250 nM to 3.91 nM, association 250 s, dissociation 400 s
Protocol: SPR experiments were performed on a Biacore T200 instrument (GE Healthcare) at 25 °C in PBS-P+ buffer (10× stock; Cytiva Life Sciences #28995084). One mL PP 96-well plates (Greiner #780201) were used for dilution directly in the plates. Anti-GST antibody (Cytiva #27457701) was chemically immobilized on a CM5 series S sensor chip (Cytiva Life Sciences #29149604) by EDC/NHS-mediated coupling. For this, an amine coupling kit (Cytiva Life Sciences #BR100633) and the recommended protocol were followed with the following specifications: 20 μg/mL of antibody diluted in 10 mM NaAc pH 5.0 buffer flowed over both flow channels for 600 s (flow rate 10 μL min^–1).
Kinetic measurements consisted of ligand capture of GST-MDM2 (200 nM, 350 s injection, flow rate 10 μL min^–1, stabilization 60 s), followed by injections (association, 250 s; dissociation, 400 s; flow rate, 30 μL min^–1) of decreasing concentrations of compounds (2-fold cascade dilutions from the starting concentration). The chip was regenerated between cycles by one injection of regeneration solution (10 mM glycine-HCl at pH 1.5) for 10 s at a flow rate of 30 μL min^–1, followed by a 120 s stabilization period. Binding was measured as resonance units over time after blank subtraction, and the data were interpreted using Biacore T200 software (version 3.2). The KD values were calculated based on steady-state affinity (1:1 binding). […]
5. Surface Plasmon Resonance Results […]
dotted lines representing the fittings from which the kinetic values are calculated. The compounds […]
shown in Figure 6 are tested at 250 nM (highest concentration) with a 2-fold dilution series until 3.91 nM (lowest concentration).
SPR Curves of compounds 4.1 and 4.4
4.1: Concentrations tested: 125 nM to 3.91 nM (2-fold dilutions) – KD: ND
Supplementary Figure 4. SPR curve of compound 4.1 against MDM2

T1 sequence (Q00987 whole entry, species assumed): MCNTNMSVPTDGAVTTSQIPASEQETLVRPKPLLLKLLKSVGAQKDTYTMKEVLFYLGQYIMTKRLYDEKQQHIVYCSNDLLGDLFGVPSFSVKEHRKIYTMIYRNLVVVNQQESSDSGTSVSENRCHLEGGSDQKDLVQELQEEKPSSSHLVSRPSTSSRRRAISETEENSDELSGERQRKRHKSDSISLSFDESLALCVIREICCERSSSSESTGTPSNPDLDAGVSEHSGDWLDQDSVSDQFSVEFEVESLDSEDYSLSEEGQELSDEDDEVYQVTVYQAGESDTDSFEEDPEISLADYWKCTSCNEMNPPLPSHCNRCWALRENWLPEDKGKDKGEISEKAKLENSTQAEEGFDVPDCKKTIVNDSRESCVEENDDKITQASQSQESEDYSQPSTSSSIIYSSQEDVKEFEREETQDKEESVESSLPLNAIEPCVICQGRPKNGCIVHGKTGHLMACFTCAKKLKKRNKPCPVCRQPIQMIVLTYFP

Structure (SMILES)	koff	kon	loss of binding (linear peptide without PNA versus PNA-constrained 1.1, 30 versus 0.7 nM)
CCCC[C@@H]1NC(=O)[C@H](CC2CCC2)NC(=O)[C@H](CCC(N)=O)NC(=O)[C@H](C)NC(=O)[C@H](Cc2c[nH]c3ccccc23)NC(=O)[C@H](Cc2ccc(O)cc2)NC(=O)[C@H](CCC(N)=O)NC(=O)[C@H](CCCC)NC(=O)[C@H](Cc2ccccc2)NC(=O)[C@H]([C@@H](C)O)NC(=O)[C@H](CC(C)C)NC(=O)CNC(=O)COCC(=O)NCCCC[C@@H](C(=O)N[C@@H](CCCNC(=N)N)C(N)=O)NC(=O)CNC(=O)[C@H](CO)NC1=O [1.1 (Cyclic)] (GLTF[Nle]QYWAQ[Cba][Nle]SGKR-NH2; linker N-15 via Diglycolyl; C-terminus assumed)	0.0024 s⁻¹	320000 M⁻¹ s⁻¹	–
CCCC[C@H](NC(=O)[C@H](CC1CCC1)NC(=O)[C@H](CCC(N)=O)NC(=O)[C@H](C)NC(=O)[C@H](Cc1c[nH]c2ccccc12)NC(=O)[C@H](Cc1ccc(O)cc1)NC(=O)[C@H](CCC(N)=O)NC(=O)[C@H](CCCC)NC(=O)[C@H](Cc1ccccc1)NC(=O)[C@@H](NC(=O)[C@H](CC(C)C)NC(=O)CNC(C)=O)[C@@H](C)O)C(=O)N[C@@H](CO)C(=O)NCC(=O)N[C@@H](CCCNC(=N)N)C(N)=O [1.1 (Linear)] (Ac-GLTF[Nle]QYWAQ[Cba][Nle]SGR-NH2; N-terminus and C-terminus assumed)	0.0022 s⁻¹	73000 M⁻¹ s⁻¹	40 fold
CCCC[C@H](NC(=O)[C@H](CC1CCC1)NC(=O)[C@H](CCC(N)=O)NC(=O)[C@H](C)NC(=O)[C@H](Cc1c[nH]c2ccccc12)NC(=O)[C@H](Cc1ccc(O)cc1)NC(=O)[C@H](CCC(N)=O)NC(=O)[C@H](CCCC)NC(=O)[C@H](Cc1ccc(F)c(F)c1)NC(=O)[C@@H](NC(=O)[C@H](CC(C)C)NC(=O)CNC(=O)CN(CCNC(=O)CN(CCNC(=O)CN(CCNC(=O)CN(CCNC(=O)[C@H](CCCNC(=N)N)NC(=O)COCCOCCNC(=O)[C@H](CCCNC(=N)N)NC(=O)CN(CCNC(=O)CN(CCNC(=O)CN(CCNC(=O)CN(CCNC(=O)CN(CCNC(=O)CN(CCNC(=O)CN(CCNC(=O)CN(CCNC(=O)[C@H](CCCNC(=N)N)NC(C)=O)C(=O)Cn1cnc2c(=O)[nH]c(N)nc21)C(=O)Cn1ccc(N)nc1=O)C(=O)Cn1ccc(N)nc1=O)C(=O)Cn1cnc2c(=O)[nH]c(N)nc21)C(=O)Cn1cc(C)c(=O)[nH]c1=O)C(=O)Cn1cnc2c(N)ncnc21)C(=O)Cn1cnc2c(=O)[nH]c(N)nc21)C(=O)Cn1cnc2c(=O)[nH]c(N)nc21)C(=O)Cn1ccc(N)nc1=O)C(=O)Cn1ccc(N)nc1=O)C(=O)Cn1cc(C)c(=O)[nH]c1=O)C(=O)Cn1cnc2c(N)ncnc21)[C@@H](C)O)C(=O)N[C@@H](CO)C(=O)NCC(=O)NCCN(CC(=O)NCCN(CC(=O)NCCN(CC(=O)NCCN(CC(=O)N[C@@H](CCCNC(=N)N)C(N)=O)C(=O)Cn1ccc(N)nc1=O)C(=O)Cn1cnc2c(=O)[nH]c(N)nc21)C(=O)Cn1cnc2c(=O)[nH]c(N)nc21)C(=O)Cn1ccc(N)nc1=O [1.2 (PNA)]	0.002 s⁻¹	1.2e+06 M⁻¹ s⁻¹	–

Now from value to compound:

koff	kon	loss of binding (linear peptide without PNA versus PNA-constrained 1.1, 30 versus 0.7 nM)	Structure (SMILES)
0.0014 s⁻¹	1.9e+06 M⁻¹ s⁻¹	–	CCCC[C@H](NC(=O)[C@H](CC1CCC1)NC(=O)[C@H](CCC(N)=O)NC(=O)[C@H](C)NC(=O)[C@H](Cc1c[nH]c2ccccc12)NC(=O)[C@H](Cc1ccc(O)cc1)NC(=O)[C@H](CCC(N)=O)NC(=O)[C@H](CCCC)NC(=O)[C@H](Cc1ccccc1)NC(=O)[C@@H](NC(=O)[C@H](CC(C)C)NC(=O)CNC(=O)CN(CCNC(=O)CN(CCNC(=O)CN(CCNC(=O)CN(CCNC(=O)[C@H](CCCNC(=N)N)NC(=O)COCCOCCNC(=O)[C@H](CCCNC(=N)N)NC(=O)CN(CCNC(=O)CN(CCNC(=O)CN(CCNC(=O)CN(CCNC(=O)CN(CCNC(=O)CN(CCNC(=O)CN(CCNC(=O)CN(CCNC(=O)[C@H](CCCNC(=N)N)NC(C)=O)C(=O)Cn1cnc2c(=O)[nH]c(N)nc21)C(=O)Cn1ccc(N)nc1=O)C(=O)Cn1ccc(N)nc1=O)C(=O)Cn1cnc2c(=O)[nH]c(N)nc21)C(=O)Cn1cc(C)c(=O)[nH]c1=O)C(=O)Cn1cnc2c(N)ncnc21)C(=O)Cn1cnc2c(=O)[nH]c(N)nc21)C(=O)Cn1cnc2c(=O)[nH]c(N)nc21)C(=O)Cn1ccc(N)nc1=O)C(=O)Cn1ccc(N)nc1=O)C(=O)Cn1cc(C)c(=O)[nH]c1=O)C(=O)Cn1cnc2c(N)ncnc21)[C@@H](C)O)C(=O)N[C@@H](CO)C(=O)NCC(=O)NCCN(CC(=O)NCCN(CC(=O)NCCN(CC(=O)NCCN(CC(=O)N[C@@H](CCCNC(=N)N)C(N)=O)C(=O)Cn1ccc(N)nc1=O)C(=O)Cn1cnc2c(=O)[nH]c(N)nc21)C(=O)Cn1cnc2c(=O)[nH]c(N)nc21)C(=O)Cn1ccc(N)nc1=O [1.1 (PNA)]
0.0021 s⁻¹	1e+06 M⁻¹ s⁻¹	–	CCCC[C@H](NC(=O)[C@H](CC(C)C)NC(=O)[C@H](CCC(N)=O)NC(=O)[C@H](C)NC(=O)[C@H](Cc1c[nH]c2ccccc12)NC(=O)[C@H](Cc1ccc(O)cc1)NC(=O)[C@H](CCC(N)=O)NC(=O)[C@H](CCCC)NC(=O)[C@H](Cc1ccccc1)NC(=O)[C@@H](NC(=O)[C@H](CC(C)C)NC(=O)CNC(=O)CN(CCNC(=O)CN(CCNC(=O)CN(CCNC(=O)CN(CCNC(=O)[C@H](CCCNC(=N)N)NC(=O)COCCOCCNC(=O)[C@H](CCCNC(=N)N)NC(=O)CN(CCNC(=O)CN(CCNC(=O)CN(CCNC(=O)CN(CCNC(=O)CN(CCNC(=O)CN(CCNC(=O)CN(CCNC(=O)CN(CCNC(=O)[C@H](CCCNC(=N)N)NC(C)=O)C(=O)Cn1cnc2c(=O)[nH]c(N)nc21)C(=O)Cn1ccc(N)nc1=O)C(=O)Cn1ccc(N)nc1=O)C(=O)Cn1cnc2c(=O)[nH]c(N)nc21)C(=O)Cn1cc(C)c(=O)[nH]c1=O)C(=O)Cn1cnc2c(N)ncnc21)C(=O)Cn1cnc2c(=O)[nH]c(N)nc21)C(=O)Cn1cnc2c(=O)[nH]c(N)nc21)C(=O)Cn1ccc(N)nc1=O)C(=O)Cn1ccc(N)nc1=O)C(=O)Cn1cc(C)c(=O)[nH]c1=O)C(=O)Cn1cnc2c(N)ncnc21)[C@@H](C)O)C(=O)N[C@@H](CO)C(=O)NCC(=O)NCCN(CC(=O)NCCN(CC(=O)NCCN(CC(=O)NCCN(CC(=O)N[C@@H](CCCNC(=N)N)C(N)=O)C(=O)Cn1ccc(N)nc1=O)C(=O)Cn1cnc2c(=O)[nH]c(N)nc21)C(=O)Cn1cnc2c(=O)[nH]c(N)nc21)C(=O)Cn1ccc(N)nc1=O [2.1 (PNA)]
0.0029 s⁻¹	830000 M⁻¹ s⁻¹	–	CCCC[C@H](NC(=O)[C@H](CC(C)C)NC(=O)[C@H](CCC(N)=O)NC(=O)[C@H](C)NC(=O)[C@H](Cc1c[nH]c2ccccc12)NC(=O)[C@H](Cc1ccc(O)cc1)NC(=O)[C@H](CCC(N)=O)NC(=O)[C@H](CCCC)NC(=O)[C@H](Cc1ccc(F)c(F)c1)NC(=O)[C@@H](NC(=O)[C@H](CC(C)C)NC(=O)CNC(=O)CN(CCNC(=O)CN(CCNC(=O)CN(CCNC(=O)CN(CCNC(=O)[C@H](CCCNC(=N)N)NC(=O)COCCOCCNC(=O)[C@H](CCCNC(=N)N)NC(=O)CN(CCNC(=O)CN(CCNC(=O)CN(CCNC(=O)CN(CCNC(=O)CN(CCNC(=O)CN(CCNC(=O)CN(CCNC(=O)CN(CCNC(=O)[C@H](CCCNC(=N)N)NC(C)=O)C(=O)Cn1cnc2c(=O)[nH]c(N)nc21)C(=O)Cn1ccc(N)nc1=O)C(=O)Cn1ccc(N)nc1=O)C(=O)Cn1cnc2c(=O)[nH]c(N)nc21)C(=O)Cn1cc(C)c(=O)[nH]c1=O)C(=O)Cn1cnc2c(N)ncnc21)C(=O)Cn1cnc2c(=O)[nH]c(N)nc21)C(=O)Cn1cnc2c(=O)[nH]c(N)nc21)C(=O)Cn1ccc(N)nc1=O)C(=O)Cn1ccc(N)nc1=O)C(=O)Cn1cc(C)c(=O)[nH]c1=O)C(=O)Cn1cnc2c(N)ncnc21)[C@@H](C)O)C(=O)N[C@@H](CO)C(=O)NCC(=O)NCCN(CC(=O)NCCN(CC(=O)NCCN(CC(=O)NCCN(CC(=O)N[C@@H](CCCNC(=N)N)C(N)=O)C(=O)Cn1ccc(N)nc1=O)C(=O)Cn1cnc2c(=O)[nH]c(N)nc21)C(=O)Cn1cnc2c(=O)[nH]c(N)nc21)C(=O)Cn1ccc(N)nc1=O [2.2 (PNA)]
